Source: patent publication US20250277012A1 (Protagonist Therapeutics, Inc., priority 2021, published 2025)
Positions of bridges follow the written chain, without caps; N, C: chain ends. Non-standard residues stand in square brackets, D forms with d. Residues, ends and D or L forms follow the SMILES beside them. Groups on a side chain read outwards from the residue. ξ: configuration not given here. *: point of attachment. CH3O(CH2CH2O)11CH2CH2CO = COCCOCCOCCOCCOCCOCCOCCOCCOCCOCCOCCOCCC(=O)*; X13 = COC(=O)CCCCCCCCCCCCCCCCC(=O)NCC[N+](C)(C)CC(=O)*; X1 = C[N+](C)(CCNC(=O)CCCCCCCCCCCCCCCCC(=O)O)CC(=O)*; X5 = CCCCCCCCCCCCCCCC(=O)NCC[N+](C)(C)CC(=O)*; C18 diacid = O=C(O)CCCCCCCCCCCCCCCCC(=O)*; Dip = N[C@H](C(=O)O)C(c1ccccc1)c1ccccc1; ξDip = NC(C(=O)O)C(c1ccccc1)c1ccccc1; Pro(3R-OH) = O=C(O)[C@H]1NCC[C@H]1O; Palmitoyl = CCCCCCCCCCCCCCCC(=O)*; NMeT = CN[C@H](C(=O)O)[C@@H](C)O; 3Pal = N[C@@H](Cc1cccnc1)C(=O)O; β3hF = N[C@H](CC(=O)O)Cc1ccccc1; Aad = N[C@@H](CCCC(=O)O)C(=O)O; NMeK = CN[C@@H](CCCCN)C(=O)O; Isovaleryl = CC(C)CC(=O)*; hSer = N[C@@H](CCO)C(=O)O; Dap = NC[C@H](N)C(=O)O; AEEA = NCCOCCOCC(=O)O; Ahx = NCCCCCC(=O)O

target: T1, ferroportin (Homo sapiens, UniProt Q9NP59); experiment: T47D cell-based ferroportin internalization assay in presence of mouse serum albumin (MSA); parameters: a human breast carcinoma adherent cell line which endogenously expresses ferroportin; host or cells: T47D; settings: T47D internalization assay in presence of mouse serum albumin (MSA); Table 6E
T1 sequence (Q9NP59 1-571): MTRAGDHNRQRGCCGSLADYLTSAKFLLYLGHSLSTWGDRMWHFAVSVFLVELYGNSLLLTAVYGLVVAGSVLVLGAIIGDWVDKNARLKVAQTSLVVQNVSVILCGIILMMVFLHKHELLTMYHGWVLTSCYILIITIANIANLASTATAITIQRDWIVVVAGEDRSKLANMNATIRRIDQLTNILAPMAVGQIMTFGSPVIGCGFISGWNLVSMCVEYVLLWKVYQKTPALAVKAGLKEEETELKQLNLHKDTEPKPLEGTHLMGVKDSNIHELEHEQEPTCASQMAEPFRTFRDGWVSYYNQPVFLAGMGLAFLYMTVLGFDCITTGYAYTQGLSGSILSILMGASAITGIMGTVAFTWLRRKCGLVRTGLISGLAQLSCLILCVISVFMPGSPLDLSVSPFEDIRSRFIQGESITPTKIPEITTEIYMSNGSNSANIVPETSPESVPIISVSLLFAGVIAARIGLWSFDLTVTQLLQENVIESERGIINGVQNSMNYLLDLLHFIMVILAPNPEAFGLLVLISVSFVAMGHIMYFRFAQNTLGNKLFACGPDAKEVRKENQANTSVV
Method in brief: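 Peptide potency for inducing ferroportin internalization was measured in T47D cells in the presence of serum albumin. Cells grown in RPMI with fetal bovine serum were seeded in 96-well plates at 80-100 k cells per well in 100 ul and rested overnight. Dilution series of test peptides were preincubated 30 min at room temperature, then added to the cells after the medium was aspirated.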

IC50 | Compound
10 to 100 nM | CC(C)CC(=O)N[C@@H](CCCC(=O)O)C(=O)N[C@H](C(=O)N[C@@H](Cc1cccnc1)C(=O)N[C@H](C(=O)N1CCC[C@H]1C(=O)N[C@H]1CSSC[C@@H](C(=O)N(C)[C@@H](CCCCNC(=O)COCCOCCNC(=O)COCCOCCNC(=O)[C@H](CN)NC(=O)CCCCCCCCCCCCCCCCC(=O)O)C(=O)N[C@H](CC(=O)N[C@H](CCCCN)C(N)=O)Cc2ccccc2)NC1=O)C(c1ccccc1)c1ccccc1)[C@@H](C)O [compound 246] (Isovaleryl-[Aad]T[3Pal][Dip]PCC[NMeK]([AEEA-AEEA-Dap-C18 diacid])[β3hF][dK]-NH2; disulfide 6-7)
10 to 100 nM | CC(C)CC(=O)N[C@@H](CCCC(=O)O)C(=O)N[C@H](C(=O)N[C@@H](Cc1c[nH]cn1)C(=O)N[C@H](C(=O)N1CCC[C@H]1C(=O)N[C@H]1CSSC[C@@H](C(=O)N(C)[C@@H](CCCCNC(=O)COCCOCCNC(=O)COCCOCCNC(=O)[C@H](CN)NC(=O)CCCCCCCCCCCCCCCCC(=O)O)C(=O)N[C@H](CC(=O)N[C@H](CCCCN)C(N)=O)Cc2ccccc2)NC1=O)C(c1ccccc1)c1ccccc1)[C@@H](C)O [compound 244] (Isovaleryl-[Aad]TH[Dip]PCC[NMeK]([AEEA-AEEA-Dap-C18 diacid])[β3hF][dK]-NH2; disulfide 6-7)

same assay, conditions: Table 6E; T47D internalization assay with MSA

Compound | IC50
CC(C)CC(=O)N[C@@H](CCC(=O)O)C(=O)N(C)[C@H](C(=O)N[C@@H](Cc1c[nH]cn1)C(=O)N[C@H](C(=O)N1CCC[C@H]1C(=O)N[C@H]1CSSC[C@@H](C(=O)N(C)[C@@H](CCCCNC(=O)C[N+](C)(C)CCNC(=O)CCCCCCCCCCCCCCCCC(=O)O)C(=O)N[C@H](C(=O)N[C@H](CCCCN)C(N)=O)C(c2ccccc2)c2ccccc2)NC1=O)C(c1ccccc1)c1ccccc1)[C@@H](C)O [compound 187] (Isovaleryl-E[NMeT]H[Dip]PCC[NMeK](X1)[Dip][dK]-NH2; disulfide 6-7) | 10 to 100 nM
COC(=O)CC[C@H](NC(=O)CC(C)C)C(=O)N1CC[C@@H](O)[C@H]1C(=O)N[C@@H](Cc1c[nH]cn1)C(=O)N[C@H](C(=O)N1CCC[C@H]1C(=O)N[C@H]1CSSC[C@@H](C(=O)N(C)[C@@H](CCCCNC(=O)CCCCCNC(=O)C[N+](C)(C)CCNC(=O)CCCCCCCCCCCCCCCCC(=O)O)C(=O)N[C@H](C(=O)N[C@H](CCCCN)C(N)=O)C(c2ccccc2)c2ccccc2)NC1=O)C(c1ccccc1)c1ccccc1 [compound 155] (Isovaleryl-E(OMe)[Pro(3R-OH)]H[Dip]PCC[NMeK]([Ahx-X1])[Dip][dK]-NH2; disulfide 6-7) | 10 to 100 nM
COC(=O)CCCCCCCCCCCCCCCCC(=O)NCC[N+](C)(C)CC(=O)NCCCCCC(=O)NCCCC[C@H]1C(=O)NC(C(c2ccccc2)c2ccccc2)C(=O)N[C@@H](C(N)=O)CCCCNC(=O)CC[C@H](NC(=O)CC(C)C)C(=O)N[C@@H]([C@@H](C)O)C(=O)N[C@@H](Cc2c[nH]cn2)C(=O)N[C@@H](C(c2ccccc2)c2ccccc2)C(=O)N2CCC[C@H]2C(=O)N[C@H]2CSSC[C@H](NC2=O)C(=O)N1C (stereo partly drawn) [compound 160] (Isovaleryl-ETH[Dip]PCC[NMeK]([Ahx-X13])[ξDip][dK]-NH2; lactam 1-10; disulfide 6-7) | 10 to 100 nM
COCCOCCOCCOCCOCCOCCOCCOCCOCCOCCOCCOCCC(=O)NCCCC[C@@H](NC(=O)[C@@H](NC(=O)[C@H](CCCCNC(=O)COCCOCCNC(=O)COCCOCCNC(=O)C[N+](C)(C)CCNC(=O)CCCCCCCCCCCCCCCCC(=O)O)NC(=O)[C@@H]1CSSC[C@H](NC(=O)[C@@H]2CCCN2C(=O)[C@@H](NC(=O)[C@H](Cc2c[nH]cn2)NC(=O)[C@@H](NC(=O)[C@H](CCC(=O)O)NC(=O)CC(C)C)[C@@H](C)O)C(c2ccccc2)c2ccccc2)C(=O)N1)C(c1ccccc1)c1ccccc1)C(N)=O [compound 203] (Isovaleryl-ETH[Dip]PCCK([AEEA-AEEA-X1])[Dip][dK](CH3O(CH2CH2O)11CH2CH2CO)-NH2; disulfide 6-7) | 10 to 100 nM
CC(C)CC(=O)N[C@@H](CCC(=O)O)C(=O)N(C)[C@H](C(=O)N[C@@H](Cc1c[nH]cn1)C(=O)N[C@H](C(=O)N1CCC[C@H]1C(=O)N[C@H]1CSSC[C@@H](C(=O)N(C)[C@@H](CCCCNC(=O)CCCCCNC(=O)C[N+](C)(C)CCNC(=O)CCCCCCCCCCCCCCCCC(=O)O)C(=O)N[C@H](C(=O)N[C@H](CCCCN)C(N)=O)C(c2ccccc2)c2ccccc2)NC1=O)C(c1ccccc1)c1ccccc1)[C@@H](C)O [compound 190] (Isovaleryl-E[NMeT]H[Dip]PCC[NMeK]([Ahx-X1])[Dip][dK]-NH2; disulfide 6-7) | 100 to 500 nM
CCCCCCCCCCCCCCCC(=O)NCC[N+](C)(C)CC(=O)NCCCC[C@@H](C(=O)N[C@H](C(=O)N(C)[C@@H](CCCCN)C(N)=O)C(c1ccccc1)c1ccccc1)N(C)C(=O)[C@@H]1CSSC[C@H](NC(=O)[C@@H]2CCCN2C(=O)[C@@H](NC(=O)[C@H](Cc2c[nH]cn2)NC(=O)[C@H]([C@@H](C)O)N(C)C(=O)[C@H](CCC(=O)OC)NC(=O)CC(C)C)C(c2ccccc2)c2ccccc2)C(=O)N1 [compound 149] (Isovaleryl-E(OMe)[NMeT]H[Dip]PCC[NMeK](X5)[Dip][NMeK]-NH2; disulfide 6-7) | 10 to 100 nM
COC(=O)CC[C@H](NC(=O)CC(C)C)C(=O)N[C@H](C(=O)N[C@@H](Cc1c[nH]cn1)C(=O)N[C@H](C(=O)N1CCC[C@H]1C(=O)N[C@H]1CSSC[C@@H](C(=O)N[C@@H](CCCCNC(=O)CCCCCNC(=O)C[N+](C)(C)CCNC(=O)CCCCCCCCCCCCCCCCC(=O)O)C(=O)N[C@H](C(=O)N[C@H](CCCCN)C(N)=O)C(c2ccccc2)c2ccccc2)NC1=O)C(c1ccccc1)c1ccccc1)[C@@H](C)O [compound 211] (Isovaleryl-E(OMe)TH[Dip]PCCK([Ahx-X1])[Dip][dK]-NH2; disulfide 6-7) | 10 to 100 nM

Now from value to compound:

IC50 | Compound
1 to 10 nM | CCCCCCCCCCCCCCCC(=O)NCCCCCC(=O)NCCCC[C@@H](C(=O)N[C@H](C(=O)N[C@H](CCCCN)C(N)=O)C(c1ccccc1)c1ccccc1)N(C)C(=O)[C@@H]1CSSC[C@H](NC(=O)[C@@H]2CCCN2C(=O)[C@@H](NC(=O)[C@H](Cc2cnc[nH]2)NC(=O)[C@H]([C@@H](C)O)N(C)C(=O)[C@H](CCC(=O)O)NC(=O)CC(C)C)C(c2ccccc2)c2ccccc2)C(=O)N1 [compound 173] (Isovaleryl-E[NMeT]H[Dip]PCC[NMeK]([Ahx-Palmitoyl])[Dip][dK]-NH2; disulfide 6-7)
1 to 10 nM | CCCCCCCCCCCCCCCC(=O)NCC[N+](C)(C)CC(=O)NCCCC[C@@H](C(=O)N[C@H](C(=O)N[C@H](CCCCN)C(N)=O)C(c1ccccc1)c1ccccc1)N(C)C(=O)[C@@H]1CSSC[C@H](NC(=O)[C@@H]2CCCN2C(=O)[C@@H](NC(=O)[C@H](Cc2c[nH]cn2)NC(=O)[C@@H]2[C@H](O)CCN2C(=O)[C@H](CCC(=O)OC)NC(=O)CC(C)C)C(c2ccccc2)c2ccccc2)C(=O)N1 [compound 151] (Isovaleryl-E(OMe)[Pro(3R-OH)]H[Dip]PCC[NMeK](X5)[Dip][dK]-NH2; disulfide 6-7)
1 to 10 nM | CCCCCCCCCCCCCCCC(=O)NCC[N+](C)(C)CC(=O)NCCCCCC(=O)NCCCC[C@@H](C(=O)N[C@H](C(=O)N[C@H](CCCCN)C(N)=O)C(c1ccccc1)c1ccccc1)N(C)C(=O)[C@@H]1CSSC[C@H](NC(=O)[C@@H]2CCCN2C(=O)[C@@H](NC(=O)[C@H](Cc2cnc[nH]2)NC(=O)[C@@H](NC(=O)[C@H](CCC(=O)O)NC(=O)CC(C)C)[C@@H](C)O)C(c2ccccc2)c2ccccc2)C(=O)N1 [compound 197] (Isovaleryl-ETH[Dip]PCC[NMeK]([Ahx-X5])[Dip][dK]-NH2; disulfide 6-7)
1 to 10 nM | CCCCCCCCCCCCCCCC(=O)NCCCCCC(=O)NCCCC[C@@H](C(=O)N[C@H](C(=O)N[C@H](CCCCN)C(N)=O)C(c1ccccc1)c1ccccc1)N(C)C(=O)[C@@H]1CSSC[C@H](NC(=O)[C@@H]2CCCN2C(=O)[C@@H](NC(=O)[C@H](Cc2cnc[nH]2)NC(=O)[C@@H](NC(=O)[C@H](CCO)NC(=O)CC(C)C)[C@@H](C)O)C(c2ccccc2)c2ccccc2)C(=O)N1 [compound 168] (Isovaleryl-[hSer]TH[Dip]PCC[NMeK]([Ahx-Palmitoyl])[Dip][dK]-NH2; disulfide 6-7)
1 to 10 nM | CCCCCCCCCCCCCCCC(=O)NCCCCCC(=O)NCCCC[C@@H](C(=O)N[C@H](C(N)=O)C(c1ccccc1)c1ccccc1)N(C)C(=O)[C@@H]1CSSC[C@H](NC(=O)[C@@H]2CCCN2C(=O)[C@@H](NC(=O)[C@H](Cc2cnc[nH]2)NC(=O)[C@H]([C@@H](C)O)N(C)C(=O)[C@H](CCC(=O)O)NC(=O)CC(C)C)C(c2ccccc2)c2ccccc2)C(=O)N1 [compound 172] (Isovaleryl-E[NMeT]H[Dip]PCC[NMeK]([Ahx-Palmitoyl])[Dip]-NH2; disulfide 6-7)
1 to 10 nM | CCCCCCCCCCCCCCCC(=O)NCC[N+](C)(C)CC(=O)NCCCC[C@@H](C(=O)N[C@H](C(N)=O)C(c1ccccc1)c1ccccc1)N(C)C(=O)[C@@H]1CSSC[C@H](NC(=O)[C@@H]2CCCN2C(=O)[C@@H](NC(=O)[C@H](Cc2cnc[nH]2)NC(=O)[C@@H]2[C@H](O)CCN2C(=O)[C@H](CCC(=O)O)NC(=O)CC(C)C)C(c2ccccc2)c2ccccc2)C(=O)N1 [compound 150] (Isovaleryl-E[Pro(3R-OH)]H[Dip]PCC[NMeK](X5)[Dip]-NH2; disulfide 6-7)
